Experimental data: patent US4371544A, “Pharmaceutical composition containing 1,1,3,5-substituted biuret compound” (Taiho Pharmaceutical Company Limited, priority 1979, dated 1983)
Read-outs that look alike come from different tables or passages of the source.

Legend:
[1] = system: Wistar strain of male rats; assay: Anti-pyretic activity (dry-yeast-induced fever); assay type: in vivo, rat (Wistar); conditions: oral (dose not given), up to 4 hours after administration
Method: (§1) Next, several tests for determining the pharmacological properties, in that acute toxicity, anti-pyretic activity, analgesic activity and anti-inflammatory activity of the present 1,1,3,5-substituted biuret compounds of the formula (1) were conducted and the test results are shown in Table (2). In the tests, each compounds to be tested was used as a suspension in 0.25% carboxymethylcellulose solution. Methods for testing are explained as follows:
According to the method reported by Tanabe [Folia Pharmacologia Japonica, Vol. 73, pp. 803 (1977)], the Wistar strain of male rats (150-180 g, body weight) were used as test animals. The rats were fasted overnight, and 1 ml/100 g (body weight) of 10% dry-yeast suspension were subcutaneously injected on the back of the rats. Five hours after the injection, the test compound was administered orally, then the body temperature of the rat was measured at time sequences. Anti-pyretic activity of the test compound was determined as the FI (febril index) by integrating pyrogenetic curve up to 4 hours after the administration of the test compound with time, and indicated as inhibitory ratio (%) shown by the following formula, [formula]

ddy strain of male mice [2] = assay: Analgesic activity, Haffner method (morphine threshold dose, clamp); assay type: in vivo, mouse (ddy)
Method: as §1
According to the modified method reported by Fujimura et. al., [Bulletin of the Institute for Chemical Research, Kyoto University, No. 25, pp. 36 (1951)], the ddy strain of male mice (body weight, 20-25 g) were used as test animals. The mice were fasted overnight, 100 mg/kg body weight of the test compound was administered orally, then 45 minutes after the administration, the threshold amount (1.5-2.5 mg/kg body weight) of morphine hydrochloride was injected subcutaneously. Then 1-hour pain reaction of the mouse caused by a clamp was observed. Analgesic activity of the test compound was calculated as the inhibitory ratio (%). In Table 2, the values in parentheses show the data obtained from the test by using the dosage other than 100 mg/kg body weight. Further, the values indicated with Δ marks show 50% effective dose, ED50 (mg/kg body weight).

ddy strain of male mice [3] = assay: Analgesic activity, acetic acid-induced stretching method; assay type: in vivo, mouse (ddy); conditions: for inhibition in vivo at 100 mg/kg: po
Method: as §1
According to the method reported by Koster et al., [Fed. Proc., Vol. 18, pp. 412 (1959)], the ddy strain of male mice (body weight, 20-25 g) were used as test animals. The mice were fasted overnight, 100 mg/kg body weight of the test compound was administered orally, then 1 hour after the administration, 0.2 ml of 0.7% acetic acid solution was injected intraperitoneally. The acetic acid-induced stretching symptom of mouse was observed. Analgesic activity of the test compound was calculated as the inhibitory ratio (%). In Table 2, the values in parentheses show the data obtained from the test by using the dosage other than 100 mg/kg body weight. Further, the values indicated with Δ marks show 50% effective dose, ED50 (mg/kg body weight).

[4] = system: Wistar strain of male rats; assay: Anti-inflammatory activity (acute carrageenin-induced inflammatory test, hindpaw); assay type: in vivo, rat (Wistar)
Method: as §1
According to the method of acute carrageenin-induced inflammatory test [Folia Pharmacologia Japonica, Vol. 56, pp. 575 (1960)], the Wistar strain of male rats (body weight, 150-180 g) were used as test animals. The rats were fasted overnight, 100 mg/kg body weight of the test compound was administered orally, then 1 hour after the administration, 0.1 ml of 1% carrageenin solution, as the inflammation inducing agent, was injected subcutaneously to the hindpaw of the rat and the volume of the hindpaw was measured at time sequences, Anti-inflammatory activity of the test compound was calculated as inflammation inhibitory ratio (%) at 3 hours after the injection of inflammation inducing agent.

ddy strain of male mice [5] = assay: Acute toxicity (oral, mice, 7 days observation); assay type: in vivo
Method: as §1
The ddy strain of male mice (body weight, 20-25 g) were used as test animals. The mice were fasted overnight and the compound to be tested was administered orally. […] The lethal dose (mg/kg, body weight) of the test compound was determined in connection with the death number of mice/the number of mice tested. In Table 2, the values indicated with Δ marks are 50% lethal dose, LD50 (mg/kg, body weight).

[6] = 100 mg/kg oral, 1 hour before acetic acid
[7] = 100 mg/kg oral, 45 minutes before morphine hydrochloride
[8] = 100 mg/kg oral, 3 hours after carrageenin
[9] = Rattus norvegicus, po, 3 h, read-out: Anti-inflammatory activity, inflammation inhibitory ratio
[10] = Mus musculus, 100 mg/kg oral, 45 minutes before morphine hydrochloride, read-out: Analgesic activity, Haffner method, inhibitory ratio
[11] = Mus musculus, read-out: Analgesic activity, acetic acid-induced stretching method, inhibitory ratio

CN(C)C(=O)N(C)C(=O)Nc1cccc(Cl)c1 [compound 11, 1,1,3-Trimethyl-5-(3-chlorophenyl)biuret]
Anti-pyretic activity, inhibitory ratio (febril index) [1]: 43% | Analgesic activity, Haffner method, inhibitory ratio (ddy strain of male mice [2]; 200 mg/kg oral): 75% | Analgesic activity, acetic acid-induced stretching method, inhibitory ratio (ddy strain of male mice [3]; [6]): 62.5% | Anti-inflammatory activity, inflammation inhibitory ratio ([4]; 100 mg/kg oral, (2 hours)): 30%

CN(C)C(=O)N(C)C(=O)Nc1ccc([N+](=O)[O-])cc1 [compound 20, 1,1,3-Trimethyl-5-(4-nitrophenyl)biuret]
Anti-pyretic activity, inhibitory ratio (febril index) [1]: 26% | Analgesic activity, Haffner method, inhibitory ratio (ddy strain of male mice [2]; [7]): 50% | Acute toxicity: death number of mice/number of mice tested (ddy strain of male mice [5]; 500 mg/kg oral): 2/4 | Anti-inflammatory activity, inflammation inhibitory ratio [4, 8]: 32%

COc1cc(NC(=O)N(C)C(=O)N(C)C)cc(OC)c1OC [compound 25, 1,1,3-Trimethyl-5-(3,4,5-trimethoxyphenyl)biuret]
Anti-pyretic activity, inhibitory ratio (febril index) [1]: 23% | Analgesic activity, Haffner method, inhibitory ratio (ddy strain of male mice [2]; [7]): 62.5% | Acute toxicity: death number of mice/number of mice tested (ddy strain of male mice [5]; 500 mg/kg oral): 0/4 | Acute toxicity: death number of mice/number of mice tested (ddy strain of male mice [5]; 1000 mg/kg oral): 2/4 | Anti-inflammatory activity, inflammation inhibitory ratio [4, 8]: 30%

Cc1ccccc1NC(=O)N(C)C(=O)N(C)C [compound 26, 1,1,3-Trimethyl-5-(2-methylphenyl)biuret]
Anti-pyretic activity, inhibitory ratio (febril index) [1]: 41% | Analgesic activity, Haffner method, inhibitory ratio (ddy strain of male mice [2]; [7]): 50% | Analgesic activity, acetic acid-induced stretching method, inhibitory ratio (ddy strain of male mice [3]; [6]): 37.5% | Anti-inflammatory activity, inflammation inhibitory ratio [4, 8]: 29%

CC(=O)c1ccc(NC(=O)N(C)C(=O)N(C)C)cc1 [compound 33, 1,1,3-Trimethyl-5-(4-acetylphenyl)biuret]
Anti-pyretic activity, inhibitory ratio (febril index) [1]: 36% | Analgesic activity, Haffner method, inhibitory ratio (ddy strain of male mice [2]; [7]): 37.5% | Acute toxicity: death number of mice/number of mice tested (ddy strain of male mice [5]; 500 mg/kg oral): 0/4 | Acute toxicity: death number of mice/number of mice tested (ddy strain of male mice [5]; 1000 mg/kg oral): 4/4 | Anti-inflammatory activity, inflammation inhibitory ratio ([4]; 100 mg/kg oral, (2 hours)): 31%

CN(C)C(=O)N(C)C(=O)NC1CCCCC1 [compound 35, 1,1,3-Trimethyl-5-cyclohexylbiuret]
Analgesic activity, Haffner method, inhibitory ratio (ddy strain of male mice [2]; [7]): 25% | Analgesic activity, acetic acid-induced stretching method, inhibitory ratio (ddy strain of male mice [3]; 200 mg/kg oral): 87.5% | inhibition in vivo at 100 mg/kg [4, 9]: 24%

CCCCN(C)C(=O)NC(=O)Nc1ccccc1 [compound 47, 1-Methyl-1-n-butyl-5-phenylbiuret]
inhibition in vivo at 100 mg/kg (ddy strain of male mice [2]; [10]): 25% | Acute toxicity: death number of mice/number of mice tested (ddy strain of male mice [5]; 2000 mg/kg oral): 0/4 | inhibition in vivo at 100 mg/kg (ddy strain of male mice [3]; [11]): 50% | inhibition in vivo at 100 mg/kg ([4]; Rattus norvegicus, 100 mg/kg oral, 3 hours after carrageenin, read-out: Anti-inflammatory activity, inflammation inhibitory ratio): 20%

CN(C(=O)Nc1ccccc1)C(=O)N1CC1 [compound 66, 1,1-Ethylene-3-methyl-5-phenylbiuret]
Anti-pyretic activity, inhibitory ratio (febril index) [1]: 28% | inhibition in vivo at 100 mg/kg (ddy strain of male mice [2]; [10]): 25% | Acute toxicity: death number of mice/number of mice tested (ddy strain of male mice [5]; 250 mg/kg oral): 2/4 | Acute toxicity: death number of mice/number of mice tested (ddy strain of male mice [5]; 500 mg/kg oral): 4/4 | inhibition in vivo at 100 mg/kg (ddy strain of male mice [3]; [11]): 62.5%

O=C(NC(=O)N1CCCC1)Nc1ccccc1 [compound 67, 1,1-Tetramethylene-5-phenylbiuret]
inhibition in vivo at 100 mg/kg (ddy strain of male mice [2]; [10]): 37.5% | Acute toxicity: death number of mice/number of mice tested (ddy strain of male mice [5]; 2000 mg/kg oral): 0/4 | inhibition in vivo at 100 mg/kg (ddy strain of male mice [3]; [11]): 50% | inhibition in vivo at 100 mg/kg [4, 9]: 33%

O=C(NC(=O)N1CCOCC1)Nc1ccccc1 [compound 71, 1,1-(3-Oxapentamethylene)-5-phenylbiuret]
inhibition in vivo at 200 mg/kg (ddy strain of male mice [2]; Mus musculus, 200 mg/kg oral, read-out: Analgesic activity, Haffner method, inhibitory ratio): 50% | Acute toxicity: death number of mice/number of mice tested (ddy strain of male mice [5]; mouse, in vivo): 0/4 | inhibition in vivo at 200 mg/kg (ddy strain of male mice [3]; Mus musculus, 200 mg/kg oral, read-out: Analgesic activity, acetic acid-induced stretching method, inhibitory ratio): 40% | inhibition in vivo at 200 mg/kg [4, 9]: 23%

CN(C(=O)Nc1ccccc1)C(=O)N1CCOCC1 [compound 73, 1,1-(3-Oxapentamethylene)-3-methyl-5-phenylbiuret]
Anti-pyretic activity, inhibitory ratio (febril index) [1]: 17% | inhibition in vivo at 100 mg/kg (ddy strain of male mice [2]; [10]): 25% | Acute toxicity: death number of mice/number of mice tested (ddy strain of male mice [5]; mouse, in vivo): 0/4 | inhibition in vivo at 100 mg/kg (ddy strain of male mice [3]; [11]): 50%
